{
  "source": "patent US7659273B2",
  "about": "“Composition for accelerating bone fracture healing” (Mitsubishi Tanabe Pharma Corporation, priority 2001, dated 2010)",
  "tested_on": "fibula fracture region",
  "test": "Acceleration of fracture healing in normal rats, Compound (2) microspheres (Experimental Example 2)",
  "type": "in vivo, rat",
  "details": "Example 7 microspheres; for Fibula Bone Mineral Content / Fibula Bone Volume / Fibula Bone Mineral Density: 2 weeks after suturing; for Fibula Bone Mineral Density: DXA at fracture region; for Breaking Energy: 4 weeks after suturing, three-point bending test",
  "procedure": "CD (SD) IGS rats (Charles River Japan, Inc.; male; 7-week-old) were housed for seven days at room temperature (23±2° C.) and 50±20% humidity. During the housing period, the rats were free to access commercially available food (from Oriental Bio; CE-2).\nUnder ether anesthesia, the left-lower legs of rats were shaved and sterilized with 70% aqueous ethanol; fibulas were exposed with scissors and cut with nail scissors (Natsume Seisakusyo; B17). The cut sections of the fibula were re-matched with tweezers. For the test groups (15 rats/group), the drug-containing microspheres prepared in Example 7, which contains 0.004, 0.02, 0.1 or 0.5 mg of Compound (2), were placed around the cutting site using spatula followed by suturing with silk thread. For the control group (15 rats/group), the same amount of drug-free microspheres prepared in Control Example 2 were placed around the cutting site using spatula followed by suturing with silk thread. Following the suturing, every animal was sterilized with 70% aqueous ethanol. Five rats at two weeks later and 10 rats at four weeks later were taken from each group and sacrificed by laparotomy with bleeding under ether anesthesia and the fibulas were excised.\nThe fibula excised at 2 weeks after suturing was subjected to DXA bone densitometer (from Aloka; DCS-600) to determine bone mineral density and bone mineral content at fracture region (scanning width: 1 mm).\nThe volume of fibula excised at 2 weeks after suturing was determined using Plethysmometer (Muromachi Kikai Co., Ltd.; TK-101).\nThe fibula excised at 4 weeks after suturing was subjected to a three-point bending test with bone strength tester (from Muromachi Kikai Co., Ltd.; TK-252C) to determine bone strength. Briefly, the fibula was supported by two supports apart from each other by 8 mm and the cut section was positioned at the middle of these supports, i.e., 4 mm apart from the respective two supports. Loading (3 mm/minute) from upper direction was kept on the middle point (fracture section) of fibula until fibula begins to fracture. The breaking force […] spent to break the bone was defined as the breaking energy.",
  "data": [
    {"smiles": "CCOc1cc2cc(CO)c(CO)c(-c3ccnc(-n4nc(-c5cccnc5)c5ccccc5c4=O)c3)c2cc1OCC", "note": "[Compound (2)]", "values": [
      {"measurement": "Fibula Bone Mineral Content", "setting": "drug content 0.004 mg", "result": "15.90 ± 1.88", "unit": "mg"},
      {"measurement": "Fibula Bone Volume", "setting": "drug content 0.004 mg", "result": "85.0 ± 8.14", "unit": "µL"},
      {"measurement": "Fibula Bone Mineral Density", "setting": "drug content 0.004 mg", "result": "46.18 ± 3.18", "unit": "mg/cm^2"},
      {"measurement": "Breaking Energy", "setting": "drug content 0.004 mg", "result": "2.66 ± 0.49", "unit": "mJ"},
      {"measurement": "Fibula Bone Mineral Content", "setting": "drug content 0.02 mg", "result": "19.86 ± 1.75", "unit": "mg"},
      {"measurement": "Fibula Bone Volume", "setting": "drug content 0.02 mg", "result": "97.6 ± 4.99", "unit": "µL"},
      {"measurement": "Fibula Bone Mineral Density", "setting": "drug content 0.02 mg", "result": "50.72 ± 2.68", "unit": "mg/cm^2"},
      {"measurement": "Breaking Energy", "setting": "drug content 0.02 mg", "result": "2.59 ± 0.55", "unit": "mJ"},
      {"measurement": "Fibula Bone Mineral Content", "setting": "drug content 0.1 mg", "result": "23.10 ± 2.72", "unit": "mg"},
      {"measurement": "Fibula Bone Volume", "setting": "drug content 0.1 mg", "result": "121.6 ± 13.76", "unit": "µL"},
      {"measurement": "Fibula Bone Mineral Density", "setting": "drug content 0.1 mg", "result": "56.06 ± 4.19", "unit": "mg/cm^2"},
      {"measurement": "Breaking Energy", "setting": "drug content 0.1 mg", "result": "3.15 ± 0.54", "unit": "mJ"},
      {"measurement": "Fibula Bone Mineral Content", "setting": "drug content 0.5 mg", "result": "23.24 ± 2.97", "unit": "mg"},
      {"measurement": "Fibula Bone Volume", "setting": "drug content 0.5 mg", "result": "132.2 ± 11.72", "unit": "µL"},
      {"measurement": "Fibula Bone Mineral Density", "setting": "drug content 0.5 mg", "result": "52.18 ± 4.36", "unit": "mg/cm^2"},
      {"measurement": "Breaking Energy", "setting": "drug content 0.5 mg", "result": "3.27 ± 0.61", "unit": "mJ"}
    ]}
  ]
}
